Results published in patent US8367682B2, “Pyrimidine derivatives and their use as pesticides” (Novartis AG, priority 2006, dated 2013).

Assays:
Rhipicephalus sanguineus = assay: Activity in vitro against Rhipicephalus sanguineus (dog ticks), HTS; details: in this test; adult ticks; concentration not given
Protocol: 2. Activity in Vitro Against Rhipicephalus sanguineus (Dog Ticks)—HTS
A clean adult tick population is used to seed a suitably formatted 96-well plate containing the test substances to be evaluated for antiparasitic activity. Each compound is tested by serial dilution in order to determine its MED. Ticks are left in contact with the test compound for 10 minutes and are then incubated at 28° C. and 80% relative humidity (RH) for 7 days, during which the test compound's effect is monitored. Acaricidal activity is confirmed if and when adult ticks are dead.

Ctenocephalides felis = assay: Activity in vitro against Ctenocephalides felis (cat flea), HTS, artificial blood feeding; details: in this test; adult fleas; concentration not given
Protocol: 3. Activity in Vitro Against Ctenocephalides felis (Cat Flea)—HTS
A mixed adult population of fleas is placed in a suitably formatted 96-well plate allowing fleas to access and feed on treated blood via an artificial feeding system. Each compound is tested by serial dilution in order to determine its MED. Fleas are fed on treated blood for 24 hours, after which the compound's effect is recorded. Insecticidal activity is determined on the basis of the number of dead fleas recovered from the feeding system.

[1] = test system: Rhipicephalus sanguineus nymphs; assay: In-vivo test against Rhipicephalus sanguineus nymphs on Mongolian gerbils; details: for % reduction of number of ticks: spray (or spot-on) on gerbils, vs placebo group, Abbot's formula
Protocol: 4. In-Vivo Test Against Rhipicephalus sanquineus Nymphs on Mongolian Gerbils (Meriones unguiculatus)
On day 0, gerbils are treated with the test compound at a given dose by spray (or spot-on) application. On day +1 (+2), the animals are infested with nymphs of R. sanguineus. Ticks are left on the animals until full repletion. Seven days after infestation nymphs dropped off fully engorged are collected and counted. They are kept until molting to also evaluate growth regulating activity of the test compound. Efficacy in killing (and growth regulating) is expressed as a tick number (and molted tick number) reduction in comparison with a placebo treated group, using the Abbot's formula. A tick number reduction of more than 60%, in particular more than 70%, is regarded as a minimum prerequisite for a commercial development of a compound. In addition, said killing efficacy should be put into practice with the minimal dose for safety and environmental reasons.

Structure (SMILES) | % reduction of number of ticks ([1]; dose 3.2 mg/kg) [%] | % reduction of number of ticks ([1]; dose 10 mg/kg) [%] | other results
Nc1c(Oc2ccc(F)c(C(F)(F)F)c2)nc(-c2ccccc2)nc1Oc1ccc(F)c(C(F)(F)F)c1 [2-phenyl-4,6-bis-(4-fluoro-3-[trifluoromethyl]phenoxy)-5-amino-pyrimidine] |  |  | acaricidal efficacy (Rhipicephalus sanguineus): does not show any significant acaricidal efficacy; insecticidal efficacy (Ctenocephalides felis): does not show any significant insecticidal efficacy; killing efficacy ([1]; at these low concentrations (doses of the table, 3.2-10 mg/kg)): No significant killing efficacy
COc1cccc(-c2nc(Oc3ccc(F)c(C(F)(F)F)c3)c(N)c(Oc3ccc(F)c(C(F)(F)F)c3)n2)c1 [Compound 1.7] | 91 |  | 
Cc1cccc(-c2nc(Oc3ccc(F)c(C(F)(F)F)c3)c(N)c(Oc3ccc(F)c(C(F)(F)F)c3)n2)c1 [Compound 1.9] |  | 74 | 
CC(C)c1cccc(-c2nc(Oc3ccc(F)c(C(F)(F)F)c3)c(N)c(Oc3ccc(F)c(C(F)(F)F)c3)n2)c1 [Compound 1.10] |  | 81 | 
CC(O)c1cccc(-c2nc(Oc3ccc(F)c(C(F)(F)F)c3)c(N)c(Oc3ccc(F)c(C(F)(F)F)c3)n2)c1 (stereo not shown) [Compound 1.18] |  | 85 | 
Cc1cc(-c2nc(Oc3ccc(F)c(C(F)(F)F)c3)c(N)c(Oc3ccc(F)c(C(F)(F)F)c3)n2)ccc1F [Compound 1.23] |  | 99 | 
COCc1cccc(-c2nc(Oc3ccc(F)c(C(F)(F)F)c3)c(N)c(Oc3ccc(F)c(C(F)(F)F)c3)n2)c1 [Compound 1.27] | 78 |  | 
Nc1c(Oc2ccc(F)c(C(F)(F)F)c2)nc(-c2cccc(N3CCOCC3)c2)nc1Oc1ccc(F)c(C(F)(F)F)c1 [Compound 1.30] | 79 |  | 
CN(C)c1cccc(-c2nc(Oc3ccc(F)c(C(F)(F)F)c3)c(N)c(Oc3ccc(F)c(C(F)(F)F)c3)n2)c1 [Compound 1.34, 2-(3-Dimethylamino-phenyl)-4,6-bis-(4-fluoro-3-trifluoromethyl-phenoxy)-pyrimidin-5-ylamine] | 85 |  | 
Cn1ccc2ccc(-c3nc(Oc4ccc(F)c(C(F)(F)F)c4)c(N)c(Oc4ccc(F)c(C(F)(F)F)c4)n3)cc21 [Compound 2.2] | 89 |  | 
Nc1c(Oc2ccc(F)c(C(F)(F)F)c2)nc(-c2ccc3cc[nH]c3c2)nc1Oc1ccc(F)c(C(F)(F)F)c1 [Compound 2.3] | 81 |  | 
